Results reported in patent US9637473B2, “Acrylamide derivatives as antimalarial agents” (priority 2013, dated 2017).

Test system: P. Falciparum NF54
Assay: Plasmodium falciparum in vitro assay ([3H]-hypoxanthine incorporation)
Assay type: cell-based
Conditions: P. Falciparum NF54, erythrocytic stages in human red blood cells, 50% human serum
Procedure: In Vitro Antimalarial Activity: Plasmodium falciparum In Vitro Assay: In vitro activity against erythrocytic stages of P. Falciparum in human red blood cells is determined using a [^3H]-hypoxanthine incorporation assay. One strain sensitive to all drugs (P. […] After 48 hours, [^3H]-hypoxanthine (0.5 μCi) is added to each well of a plate. The plates are incubated for a further 24 hours under the same conditions then harvested with a Betaplate cell harvester (Wallac) and washed with distilled water. The dried filters are inserted into a plastic foil with 10 mL of scintillation fluid and counted in a Betaplate liquid scintillation counter. IC50 values are calculated from sigmoidal inhibition curves using Microsoft Excel.

[1] = Plasmodium falciparum, Erythrocyte

Row | IC50 [1] [µM] | Compound | IC50 [µM]
1 | 0.175 | CC(c1ccccc1)N1CCC(N(Cc2ccc(N(C)c3ccncc3)cc2)C(=O)/C=C/c2ccc(C(F)(F)F)cc2)CC1 (racemic) [Example 30, (±)-(E)-N-[4-(Methyl-pyridin-4-yl-amino)-benzyl]-N-[1-(1-phenyl-ethyl)-piperidin-4-yl]-3-(4-trifluoromethyl-phenyl)-acrylamide] | –
2 | 0.018 | CN1CCC(N2CCCC(N(Cc3ccc(N(C)c4ccncc4)cc3)C(=O)/C=C/c3ccc(C(F)(F)F)cc3)CC2)CC1 (racemic) [Example 57, (±)-(E)-N-(4-(methyl(pyridin-4-yl)amino)benzyl)-N-(1-(1-methylpiperidin-4-yl)azepan-4-yl)-3-(4-(trifluoromethyl)phenyl)acrylamide] | –
3 | 0.079 | CN(c1ccncc1)c1ccc(CN(C(=O)/C=C/c2ccc(C(F)(F)F)cc2)C2CCCN(C3CCCC3)CC2)cc1 (racemic) [Example 60, (±)-(E)-N-(1-cyclopentylazepan-4-yl)-N-(4-(methyl(pyridin-4-yl)amino)benzyl)-3-(4-(trifluoromethyl)phenyl)acrylamide] | –
4 | 0.085 | CC(C)CCN1CCCC(N(Cc2ccc(N(C)c3ccncc3)cc2)C(=O)/C=C/c2ccc(C(F)(F)F)cc2)CC1 (racemic) [Example 63, (±)-(E)-N-(1-isopentylazepan-4-yl)-N-(4-(methyl(pyridin-4-yl)amino)benzyl)-3-(4-(trifluoromethyl)phenyl)acrylamide] | –
5 | 0.02 | CN1CCC(N2CCCCC(N(Cc3ccc(N(C)c4ccncc4)cc3)C(=O)/C=C/c3ccc(C(F)(F)F)cc3)C2)CC1 (racemic) [Example 70, (±)-(E)-N-(4-(methyl(pyridin-4-yl)amino)benzyl)-N-(1-(1-methylpiperidin-4-yl)azepan-3-yl)-3-(4-(trifluoromethyl)phenyl)acrylamide] | –
6 | 0.167 | CN(c1ccncc1)c1ccc(CN(C(=O)/C=C/c2ccc(C(F)(F)F)cc2)C2CCCCN(C3CCCC3)C2)cc1 (racemic) [Example 71, (±)-(E)-N-(1-cyclopentylazepan-3-yl)-N-(4-(methyl(pyridin-4-yl)amino)benzyl)-3-(4-(trifluoromethyl)phenyl)acrylamide] | –
7 | 0.152 | CC(C)CCN1CCCCC(N(Cc2ccc(N(C)c3ccncc3)cc2)C(=O)/C=C/c2ccc(C(F)(F)F)cc2)C1 (racemic) [Example 72, (±)-(E)-N-(1-isopentylazepan-3-yl)-N-(4-(methyl(pyridin-4-yl)amino)benzyl)-3-(4-(trifluoromethyl)phenyl)acrylamide] | –
8 | 0.05 | CN(c1ccncc1)c1ccc(CN(C(=O)/C=C/c2ccc(C(F)(F)F)cc2)[C@H]2CCN(C3CCCC3)C[C@H]2F)cc1 (racemic) [Example 76, (±)-(E)-N-(cis-1-cyclopentyl-3-fluoropiperidin-4-yl)-N-(4-(methyl(pyridin-4-yl)amino)benzyl)-3-(4-(trifluoromethyl)phenyl)acrylamide] | –
9 | 0.053 | CC(C)CCN1CC[C@H](N(Cc2ccc(N(C)c3ccncc3)cc2)C(=O)/C=C/c2ccc(C(F)(F)F)cc2)[C@H](F)C1 (racemic) [Example 77, (±)-(E)-N-(cis-3-fluoro-1-isopentylpiperidin-4-yl)-N-(4-(methyl(pyridin-4-yl)amino)benzyl)-3-(4-(trifluoromethyl)phenyl)acrylamide] | –
10 | – | CN1CCC(N2CCC(N(Cc3ccc(N(C)c4ccncc4)cc3)C(=O)/C=C/c3ccc(C(F)(F)F)cc3)C(F)C2)CC1 (racemic) [Example 78, (±)-(E)-N-(cis-3-fluoro-1′-methyl-[1,4′-bipiperidin]-4-yl)-N-(4-(methyl(pyridin-4-yl)amino)benzyl)-3-(4-(trifluoromethyl)phenyl)acrylamide] | 0.012
11 | – | CN1CCC(N2CCC(N(Cc3ccc(N(C)c4ccncc4)cc3)C(=O)/C=C/c3ccc(C(F)(F)F)cc3)C(F)C2)CC1 (racemic) [Example 79, (±)-(E)-N-(trans-3-fluoro-1′-methyl-[1,4′-bipiperidin]-4-yl)-N-(4-(methyl(pyridin-4-yl)amino)benzyl)-3-(4-(trifluoromethyl)phenyl)acrylamide] | 0.021
12 | 0.105 | CN(c1ccncc1)c1ccc(CN(C(=O)/C=C/c2ccc(C(F)(F)F)cc2)[C@@H]2CCN(C3CCCC3)C[C@H]2F)cc1 (racemic) [Example 80, (±)-(E)-N-(trans-1-cyclopentyl-3-fluoropiperidin-4-yl)-N-(4-(methyl(pyridin-4-yl)amino)benzyl)-3-(4-(trifluoromethyl)phenyl)acrylamide] | –
13 | 0.122 | CC(C)CCN1CC[C@@H](N(Cc2ccc(N(C)c3ccncc3)cc2)C(=O)/C=C/c2ccc(C(F)(F)F)cc2)[C@H](F)C1 (racemic) [Example 81, (±)-(E)-N-(trans-3-fluoro-1-isopentylpiperidin-4-yl)-N-(4-(methyl(pyridin-4-yl)amino)benzyl)-3-(4-(trifluoromethyl)phenyl)acrylamide] | –
14 | 0.042 | COCC(C)N1CCC(N(Cc2ccc(Nc3ccnc(C)c3)cc2)C(=O)/C=C/c2ccc(C(F)(F)F)cc2)CC1 (racemic) [Example 84, (±)-(E)-N-[1-(2-Methoxy-1-methyl-ethyl)-piperidin-4-yl]-N-[4-(2-methyl-pyridin-4-ylamino)-benzyl]-3-(4-trifluoromethyl-phenyl)-acrylamide] | –
15 | 0.043 | CN(c1ccncc1)c1ccc(CN(C(=O)/C=C/c2ccc(C(F)(F)F)cc2)C2CCN(C3CCCC3)C2)cc1 (racemic) [Example 99, (±)-(E)-N-(1-Cyclopentyl-pyrrolidin-3-yl)-N-[4-(methyl-pyridin-4-yl-amino)-benzyl]-3-(4-trifluoromethyl-phenyl)-acrylamide] | –
16 | 0.043 | Cc1cc(Nc2ccc(CN(C(=O)/C=C/c3ccc(C(F)(F)F)cc3)C3CCN(C4CCCC4)C3)cc2)ccn1 (racemic) [Example 101, (±)-(E)-N-(1-Cyclopentyl-pyrrolidin-3-yl)-N-[4-(2-methyl-pyridin-4-ylamino)-benzyl]-3-(4-trifluoromethyl-phenyl)-acrylamide] | –
17 | – | CN1CCC(N2C[C@H]3CC(N(Cc4ccc(N(C)c5ccncc5)cc4)C(=O)/C=C/c4ccc(C(F)(F)F)cc4)C[C@H]3C2)CC1 (single isomer, unassigned) [Example 64] | 0.012
18 | – | CN(c1ccncc1)c1ccc(CN(C(=O)/C=C/c2ccc(C(F)(F)F)cc2)C2C[C@@H]3CN(C4CCCC4)C[C@@H]3C2)cc1 (single isomer, unassigned) [Example 66] | 0.014
19 | – | CC(C)CCN1C[C@H]2CC(N(Cc3ccc(N(C)c4ccncc4)cc3)C(=O)/C=C/c3ccc(C(F)(F)F)cc3)C[C@H]2C1 (single isomer, unassigned) [Example 68] | 0.017
20 | 0.121 | CN(c1ccncc1)c1ccc(CN(C(=O)/C=C/c2ccc(C(F)(F)F)cc2)C2CCNCC2)cc1 [Example 1, (E)-N-[4-(Methyl-pyridin-4-yl-amino)-benzyl]-N-piperidin-4-yl-3-(4-trifluoromethyl-phenyl)-acrylamide] | –
21 | – | CN(c1ccncc1)c1ccc(CN(C(=O)/C=C/c2ccc(C(F)(F)F)cc2)[C@H]2CCCNC2)cc1 [Example 2, (E)-N-[4-(Methyl-pyridin-4-yl-amino)-benzyl]-N-(S)-piperidin-3-yl-3-(4-trifluoromethyl-phenyl)-acrylamide] | 0.082
